Reference: ChEMBL document CHEMBL1201862, “PubChem BioAssay data set” (2004)
The source made the active and inactive calls.

What was measured:
MEF = test: SAR analysis of small molecule cytotoxicity of MazEF TA System activators in embryonic fibroblast (MEF) cells. [Related pubchem assays (depositor defined):AID504720, AID504743]; type: functional; settings: Mus musculus
[1] = target: T1, Endoribonuclease toxin MazF (Escherichia coli K-12, UniProt P0AE70); test: MazEF toxin-antitoxin RNase activation – biochemical, fluorescence, single-stranded RNA substrate, SAR follow-up (AID 588603); type: functional
T1 sequence (P0AE70 whole entry): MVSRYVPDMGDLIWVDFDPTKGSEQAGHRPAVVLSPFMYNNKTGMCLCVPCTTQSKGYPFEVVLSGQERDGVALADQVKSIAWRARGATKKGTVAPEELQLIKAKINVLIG

[2] = target: T1, Endoribonuclease toxin MazF; test: SAR analysis of small molecule activators of the MazEF TA System via a fluorescence-based single-stranded RNase assay counterscreen. [Related pubchem assays (depositor defined):AID504720, AID504743]; type: functional
[3] = target: T1, Endoribonuclease toxin MazF; test: substrate-only fluorescence increase artefacts – biochemical, single-stranded RNase substrate, counter-screen for MazEF activator project, dose response (AID 588502); type: functional
[4] = target: T1, Endoribonuclease toxin MazF; test: activation of MazEF endoribonuclease cleavage – biochemical, fluorescence, single-stranded RNA substrate, uHTS hits, dose response (AID 588481); type: functional
[5] = target: Beta-2 adrenergic receptor (Homo sapiens, UniProt P07550); test: ADRB2 activation measured by internalization – cell-based, FAP fluorogen, flow cytometry, cherry pick 1, dose response (AID 588763); type: functional
BJ [6] = test: BJ-TERT-LT-ST fibroblast viability loss – cell-based, RAS-independent, luminescence, dose response (AID 1935); type: functional; settings: Homo sapiens;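 note: BJ fibroblasts immortalized with TERT plus LT and ST oncogenes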
Cytochrome P450 2C9 = Cytochrome P450 2C9 (Homo sapiens, UniProt P11712)
[7] = DRD fibroblast viability loss – cell-based, non-viral oncogenic, luminescence, dose response (AID 1934); type: functional; settings: Homo sapiens
BJ [8] = test: cells; type: functional, cell-based; settings: Homo sapiens
INS1 = test: INS-1E survival protection against cytokine death – cell-based, luminescence, retest, dose response (AID 449756); type: functional; settings: Rattus norvegicus;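 note: cell death triggered by IL-1 beta plus TNF-alpha plus IFN-gamma mixture; protective hits raise ATP signal compared with cytokine alone wells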
BJ [9] = test: BJ-TERT fibroblast viability loss – cell-based, RAS-independent, luminescence, dose response (AID 1933); type: functional; settings: Homo sapiens
BJ [10] = test: growth inhibition of engineered Ras-driven BJ cells – cell-based, alamar blue fluorescence, cherrypicked samples, dose response (AID 2631); type: functional; settings: Homo sapiens;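 note: confirmatory dose-response assay in RAS-dependent BJ fibroblasts engineered with TERT, LT and ST, with cytotoxicity read by fluorescence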
Cytochrome P450 2C19 = Cytochrome P450 2C19 (Homo sapiens, UniProt P33261); test: Cytochrome panel assay with activity outcomes. Panel member name: p450-cyp2c19 Compounds with AC50 equal or less than 10 uM are considered active; type: functional; settings: read-out: AC50
[11] = target: T2, Mannose-6-phosphate isomerase (Homo sapiens, UniProt P34949); test: MPI inhibition at elevated mannose 6-phosphate – biochemical, fluorescence intensity, high mannose 6-phosphate, primary screen (AID 1220)
T2 sequence (P34949 whole entry): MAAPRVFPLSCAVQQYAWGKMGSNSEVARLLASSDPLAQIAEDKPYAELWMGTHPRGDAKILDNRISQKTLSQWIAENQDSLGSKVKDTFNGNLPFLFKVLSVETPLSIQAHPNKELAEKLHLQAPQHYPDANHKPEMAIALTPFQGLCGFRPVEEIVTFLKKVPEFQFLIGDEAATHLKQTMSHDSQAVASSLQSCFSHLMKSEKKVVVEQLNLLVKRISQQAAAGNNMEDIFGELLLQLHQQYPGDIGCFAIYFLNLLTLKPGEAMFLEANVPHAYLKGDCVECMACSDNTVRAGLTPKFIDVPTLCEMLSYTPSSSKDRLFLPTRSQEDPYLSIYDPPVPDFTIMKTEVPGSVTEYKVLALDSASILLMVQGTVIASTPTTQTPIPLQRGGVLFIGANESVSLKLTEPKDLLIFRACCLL

[12] = viability of HCT116 lacking mutant beta-catenin – cell-based, human colon tumor, dose response (AID 1045); type: functional;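 note: HCT116 colon tumor cells with beta catenin knocked out; cells exposed to compound for 60 hours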
Protein Tat = Protein Tat (Human immunodeficiency virus type 1 group M subtype B (isolate HXB2)(HIV-1), UniProt P04608); type: functional;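 note: tat binding to TAR RNA read out by fluorescence polarization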
Vero = test: viability of Vero cells under compound – cytotoxicity control for flavivirus capping enzyme inhibitors (AID 588742); type: functional; settings: Chlorocebus sabaeus
[13] = viability loss in THP-1 monocytes – THP-1 cells, cytotoxicity control for Vif-APOBEC3G degradation inhibitor project, dose response (AID 1117359); type: functional; settings: THP-1
[14] = viability of PTEN-deleted HCT116 cells – cell-based, HCT116 PTEN knockout, dose response (AID 1047); type: functional;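 note: HCT116 colon tumor cells with PTEN knocked out; cells exposed to compound for 60 hours before readout; potency for loss of cell viability measured by luminescence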

Sequence of Beta-2 adrenergic receptor (P07550 whole entry): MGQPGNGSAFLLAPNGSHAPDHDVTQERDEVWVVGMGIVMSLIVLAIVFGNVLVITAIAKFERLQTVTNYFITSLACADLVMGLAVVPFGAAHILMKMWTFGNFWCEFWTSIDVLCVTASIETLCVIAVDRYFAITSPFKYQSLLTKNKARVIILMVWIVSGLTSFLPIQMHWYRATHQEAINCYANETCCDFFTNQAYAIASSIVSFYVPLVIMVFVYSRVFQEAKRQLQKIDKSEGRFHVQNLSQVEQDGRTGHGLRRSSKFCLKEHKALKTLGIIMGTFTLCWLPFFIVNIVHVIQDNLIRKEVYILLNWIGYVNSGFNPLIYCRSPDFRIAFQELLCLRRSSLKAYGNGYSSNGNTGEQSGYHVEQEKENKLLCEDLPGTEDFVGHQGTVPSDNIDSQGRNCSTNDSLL
Sequence of Cytochrome P450 2C9 (P11712 whole entry): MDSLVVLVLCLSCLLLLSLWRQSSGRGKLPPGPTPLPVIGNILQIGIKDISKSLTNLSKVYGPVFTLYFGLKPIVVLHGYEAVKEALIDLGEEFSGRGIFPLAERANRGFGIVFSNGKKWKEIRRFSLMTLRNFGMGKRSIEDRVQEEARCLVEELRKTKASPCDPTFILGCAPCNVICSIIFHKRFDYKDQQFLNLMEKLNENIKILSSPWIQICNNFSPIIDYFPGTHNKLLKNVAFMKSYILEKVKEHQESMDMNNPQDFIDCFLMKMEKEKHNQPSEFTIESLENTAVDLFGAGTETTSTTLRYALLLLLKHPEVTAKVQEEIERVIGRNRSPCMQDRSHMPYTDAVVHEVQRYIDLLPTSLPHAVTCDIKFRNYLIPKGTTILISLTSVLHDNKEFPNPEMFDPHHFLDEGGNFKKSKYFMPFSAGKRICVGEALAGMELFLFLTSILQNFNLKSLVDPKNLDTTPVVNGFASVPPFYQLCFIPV
Sequence of Cytochrome P450 2C19 (P33261 whole entry): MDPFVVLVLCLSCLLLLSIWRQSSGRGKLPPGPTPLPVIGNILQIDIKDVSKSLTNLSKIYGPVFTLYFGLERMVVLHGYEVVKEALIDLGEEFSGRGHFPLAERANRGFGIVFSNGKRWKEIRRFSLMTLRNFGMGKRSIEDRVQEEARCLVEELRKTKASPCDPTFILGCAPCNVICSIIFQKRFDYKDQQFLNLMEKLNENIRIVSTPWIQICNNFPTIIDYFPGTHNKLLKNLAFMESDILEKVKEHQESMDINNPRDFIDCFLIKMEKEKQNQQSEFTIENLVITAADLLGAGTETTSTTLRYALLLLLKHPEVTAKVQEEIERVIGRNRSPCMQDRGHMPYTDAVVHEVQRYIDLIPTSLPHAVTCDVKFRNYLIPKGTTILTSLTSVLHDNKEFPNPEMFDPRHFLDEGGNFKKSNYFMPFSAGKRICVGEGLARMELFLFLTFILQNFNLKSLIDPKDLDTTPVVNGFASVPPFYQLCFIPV
Sequence of Protein Tat (P04608 whole entry): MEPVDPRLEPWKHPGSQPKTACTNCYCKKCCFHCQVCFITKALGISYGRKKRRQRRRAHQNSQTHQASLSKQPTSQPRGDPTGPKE

N#Cc1ccc(N2C(=O)[C@@H]3C(C(=O)c4ccc5ccccc5n4)=NN[C@@H]3C2=O)cc1
CC50 (MEF): > 99 µM (inactive) | EC50 [1]: 7.74 µM (active) | EC50 [2]: > 99 µM (inactive) | EC50 [3]: 0.271 µM (active) | EC50 [4]: 15.1 µM (active)

O=C(Cc1ccccc1)NC1(Cc2ccc(O)cc2)CCCCC1
EC50 [5]: 7.47 µM (active)

O=C(COc1ccc([N+](=O)[O-])cc1)Nc1ccc(C(=O)NCc2cccnc2)cc1
EC50 (BJ [6]): > 150 µM (not active) | AC50 (Cytochrome P450 2C9): 22.4 µM (inconclusive) | EC50 [7]: > 150 µM (not active) | EC50 (BJ [8]): 12.8 µM (inconclusive) | AC50 (INS1): < 0.195 µM (active) | EC50 (BJ [9]): > 150 µM (not active) | EC50 (BJ [10]): 2.51 µM (inconclusive) | AC50 (Cytochrome P450 2C19): 7.94 µM (inconclusive)

CCOc1cccc(CNc2ccc(O)cc2)c1OCc1ccc(Cl)cc1
IC50 [11]: > 50 µM (not active) | EC50 [12]: 29.4 µM (active) | IC50 (Protein Tat): 86 µM (inconclusive) | CC50 (Vero): > 40 µM (active) | CC50 [13]: 37 µM (active) | EC50 [14]: 25.2 µM (active)
